Reference: US20100216827A1 (Metabolex, Inc., priority 2008, published 2010)
pEC50: −log10 of the molar value. Like-named read-outs stand apart in the source and are kept apart here.

Target: T1, human GPR120 (Homo sapiens, UniProt Q5NUL3)
T1 construct: host or cells: HEK293 cells coexpressing Gqi5
T1 sequence (Q5NUL3 1-361): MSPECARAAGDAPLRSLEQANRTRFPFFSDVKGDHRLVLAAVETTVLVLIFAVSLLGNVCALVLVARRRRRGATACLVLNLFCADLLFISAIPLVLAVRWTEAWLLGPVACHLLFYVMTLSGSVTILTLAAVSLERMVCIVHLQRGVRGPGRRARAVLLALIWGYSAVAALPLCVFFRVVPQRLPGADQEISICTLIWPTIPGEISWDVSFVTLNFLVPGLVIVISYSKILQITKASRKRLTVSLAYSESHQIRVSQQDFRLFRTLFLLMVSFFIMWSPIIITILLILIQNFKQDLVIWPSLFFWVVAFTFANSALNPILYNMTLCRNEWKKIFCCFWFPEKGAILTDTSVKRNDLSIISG
Test: Intracellular Ca2+ (FLIPR Calcium 4, Flexstation) assay in human GPR120 stable HEK293 cell line coexpressing Gqi5
Type: cell-based
Details: for % Activity at 5 μM: 5 μM compound compared to the maximal activity of GW9508 at 6.7 μM (100%); for pEC50: human GPR120 stably expressing cells, 8 concentrations 0.00001 to 20 μM
Summary of the method: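 Calcium 4 dye-loaded HEK293 cells expressing N-terminally Flag-tagged human GPR120 with Gqi5 (HBSS/20 mM HEPES, pH 7.4; 50 min, 37 °C). Fluorescence (485/525 nm) read for 90 s after addition of compound at 8 concentrations, 0.00001–20 μM; EC50 from Max−Min change. % activity at 5 μM versus maximal GW9508 response (6.7 μM).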

[1] = read-out: EC50 between >1 μM and ≦10 μM

Compound	% Activity at 5 μM [%]	pEC50 (read-out: EC50 ≦ 1 μM)	pEC50 [1]	pEC50 (read-out: EC50 > 10 μM)
Cc1cc(COc2c(F)cc(CC(C)C(=O)O)cc2F)n(-c2ccc3c(c2)CCC3)n1 (stereo not shown) [Example 81, 3-(4-((1-(2,3-dihydro-1H-inden-5-yl)-3-methyl-1H-pyrazol-5-yl)methoxy)-3,5-difluorophenyl)-2-methylpropanoic acid]	106	≥ 6.00		
Cc1cc(COc2c(F)cc(CC(C)C(=O)O)cc2F)n(-c2cccc(C(C)C)c2)n1 (stereo not shown) [Example 85, 3-(3,5-difluoro-4-((1-(3-isopropylphenyl)-3-methyl-1H-pyrazol-5-yl)methoxy)phenyl)-2-methylpropanoic acid]	95	≥ 6.00		
Cc1cc(COc2ccc(CC(C)C(=O)O)cc2)n(-c2ccc(Cl)cc2)n1 (stereo not shown) [Example 86, 3-(4-((1-(4-chlorophenyl)-3-methyl-1H-pyrazol-5-yl)methoxy)phenyl)-2-methylpropanoic acid]	98	≥ 6.00		
Cc1cc(COc2c(F)cc(CC(C)C(=O)O)cc2F)n(-c2ccc(C)c(Cl)c2)n1 (stereo not shown) [Example 88, 3-(4-((1-(3-chloro-4-methylphenyl)-3-methyl-1H-pyrazol-5-yl)methoxy)-3,5-difluorophenyl)-2-methylpropanoic acid]	107	≥ 6.00		
CC(Cc1cc(F)c(OCc2ccnn2-c2ccccc2)c(F)c1)C(=O)O (stereo not shown) [Example 91, 3-(3,5-difluoro-4-((1-phenyl-1H-pyrazol-5-yl)methoxy)phenyl)-2-methylpropanoic acid]	64	≥ 6.00		
Cc1cc(C)cc(-n2nc(C)cc2COc2c(F)cc(CC(C)C(=O)O)cc2F)c1 (stereo not shown) [Example 92, 3-(4-((1-(3,5-dimethylphenyl)-3-methyl-1H-pyrazol-5-yl)methoxy)-3,5-difluorophenyl)-2-methylpropanoic acid]	58	≥ 6.00		
CCc1ccc(-n2nc(C)cc2COc2ccc(CC(C)C(=O)O)cc2C)cc1 (stereo not shown) [Example 95, 3-(4-((1-(4-ethylphenyl)-3-methyl-1H-pyrazol-5-yl)methoxy)-3-methylphenyl)-2-methylpropanoic acid]	100	≥ 6.00		
COc1cc(OCc2cc(C)nn2-c2ccc(Cl)cc2)ccc1CC(C)C(=O)O (stereo not shown) [Example 103, 3-(4-((1-(4-Chlorophenyl)-3-methyl-1H-pyrazol-5-yl)methoxy)-2-methoxyphenyl)-2-methylpropanoic acid]	78		5.00 to 6.00	
Cc1cc(COc2c(F)cc(CC(C)C(=O)O)cc2F)n(-c2ccc(C3CCCCC3)cc2)n1 (stereo not shown) [Example 104, 3-(4-((1-(4-Cyclohexylphenyl)-3-methyl-1H-pyrazol-5-yl)methoxy)-3,5-difluorophenyl)-2-methylpropanoic acid]	27			< 5.00
Cc1cc(COc2cc3c(cc2F)C(CC(=O)O)CC3)n(-c2ccc(Cl)cc2)n1 (stereo not shown) [Example 106, 2-(5-((1-(4-Chlorophenyl)-3-methyl-1H-pyrazol-5-yl)methoxy)-6-fluoro-2,3-dihydro-1H-inden-1-yl)acetic acid]	88	≥ 6.00		
Cc1cc(COc2c(F)cc(C3=C(C(=O)O)CCC3)cc2F)n(-c2ccc(Cl)cc2)n1 [Example 107, 2-(4-((1-(4-Chlorophenyl)-3-methyl-1H-pyrazol-5-yl)methoxy)-3,5-difluorophenyl)cyclopent-1-enecarboxylic acid]	32		5.00 to 6.00	
Cc1cc(COc2ccc(CC(C)C(=O)O)cc2F)n(-c2ccc(Cl)cc2)n1 (stereo not shown) [Example 108, 3-(4-((1-(4-Chlorophenyl)-3-methyl-1H-pyrazol-5-yl)methoxy)-3-fluorophenyl)-2-methylpropanoic acid]	106	≥ 6.00		
Cc1cc(COc2ccc(CC(C)C(=O)O)cc2C)n(-c2ccc(Cl)cc2)n1 (stereo not shown) [Example 109, 3-(4-((1-(4-Chlorophenyl)-3-methyl-1H-pyrazol-5-yl)methoxy)-3-methylphenyl)-2-methylpropanoic acid]	114	≥ 6.00		

Continued, values first:

% Activity at 5 μM [%]	pEC50 (read-out: EC50 ≦ 1 μM)	pEC50 [1]	pEC50 (read-out: EC50 > 10 μM)	Compound
68	≥ 6.00			CCCCc1ccc(-n2nc(C)cc2COc2c(F)cc(CC(C)C(=O)O)cc2F)cc1 (stereo not shown) [Example 82, 3-(4-((1-(4-butylphenyl)-3-methyl-1H-pyrazol-5-yl)methoxy)-3,5-difluorophenyl)-2-methylpropanoic acid]
88	≥ 6.00			CCc1ccc(-n2nc(C)cc2COc2c(F)cc(CC(C)C(=O)O)cc2F)cc1 (stereo not shown) [Example 83, 3-(4-((1-(4-ethylphenyl)-3-methyl-1H-pyrazol-5-yl)methoxy)-3,5-difluorophenyl)-2-methylpropanoic acid]
106	≥ 6.00			Cc1ccc(-n2nc(C)cc2COc2c(F)cc(CC(C)C(=O)O)cc2F)cc1 (stereo not shown) [Example 84, 3-(3,5-difluoro-4-((3-methyl-1-p-tolyl-1H-pyrazol-5-yl)methoxy)phenyl)-2-methylpropanoic acid]
106	≥ 6.00			Cc1cc(COc2c(F)cc(CC(C)C(=O)O)cc2F)n(-c2ccc(C)c(C)c2)n1 (stereo not shown) [Example 87, 3-(4-((1-(3,4-dimethylphenyl)-3-methyl-1H-pyrazol-5-yl)methoxy)-3,5-difluorophenyl)-2-methylpropanoic acid]
107	≥ 6.00			Cc1cc(COc2c(F)cc(CC(C)C(=O)O)cc2F)n(-c2cccc(Cl)c2)n1 (stereo not shown) [Example 89, 3-(4-((1-(3-chlorophenyl)-3-methyl-1H-pyrazol-5-yl)methoxy)-3,5-difluorophenyl)-2-methylpropanoic acid]
99	≥ 6.00			CCc1ccc(-n2nc(C)cc2COc2ccc(CC(C)C(=O)O)cc2F)cc1 (stereo not shown) [Example 90, 3-(4-((1-(4-ethylphenyl)-3-methyl-1H-pyrazol-5-yl)methoxy)-3-fluorophenyl)-2-methylpropanoic acid]
108	≥ 6.00			CC(Cc1cc(F)c(OCc2ccnn2-c2ccc(Cl)cc2)c(F)c1)C(=O)O (stereo not shown) [Example 93, 3-(4-((1-(4-chlorophenyl)-1H-pyrazol-5-yl)methoxy)-3,5-difluorophenyl)-2-methylpropanoic acid]
108	≥ 6.00			Cc1cc(COc2c(F)cc(CC(C)C(=O)O)cc2F)n(-c2ccc(Cl)c(C)c2)n1 (stereo not shown) [Example 94, 3-(4-((1-(4-chloro-3-methylphenyl)-3-methyl-1H-pyrazol-5-yl)methoxy)-3,5-difluorophenyl)-2-methylpropanoic acid]
97	≥ 6.00			CCc1ccc(-n2nc(C(F)(F)F)cc2COc2c(F)cc(CC(C)C(=O)O)cc2F)cc1 (stereo not shown) [Example 96, 3-(4-((1-(4-ethylphenyl)-3-(trifluoromethyl)-1H-pyrazol-5-yl)methoxy)-3,5-difluorophenyl)-2-methylpropanoic acid]
109	≥ 6.00			Cc1cc(COc2c(F)cc(CC(C)C(=O)O)cc2F)n(-c2ccc(Br)cc2)n1 (stereo not shown) [Example 97, 3-(4-((1-(4-bromophenyl)-3-methyl-1H-pyrazol-5-yl)methoxy)-3,5-difluorophenyl)-2-methylpropanoic acid]
104	≥ 6.00			CCc1ccc(-n2nc(C)cc2COc2c(F)cc(C[C@@H](C)C(=O)O)cc2F)cc1 [Example 98, (R)-3-(4-((1-(4-ethylphenyl)-3-methyl-1H-pyrazol-5-yl)methoxy)-3,5-difluorophenyl)-2-methylpropanoic acid]
73	≥ 6.00			CCc1ccc(-n2nc(C)cc2COc2c(F)cc(C[C@H](C)C(=O)O)cc2F)cc1 [Example 99, (S)-3-(4-((1-(4-ethylphenyl)-3-methyl-1H-pyrazol-5-yl)methoxy)-3,5-difluorophenyl)-2-methylpropanoic acid]
109	≥ 6.00			CCc1ccc(-n2nccc2COc2c(F)cc(CC(C)C(=O)O)cc2F)cc1 (stereo not shown) [Example 100, 3-(4-((1-(4-ethylphenyl)-1H-pyrazol-5-yl)methoxy)-3,5-difluorophenyl)-2-methylpropanoic acid]
113	≥ 6.00			CCc1cc(COc2c(F)cc(CC(C)C(=O)O)cc2F)n(-c2ccc(Cl)cc2)n1 (stereo not shown) [Example 101, 3-(4-((1-(4-chlorophenyl)-3-ethyl-1H-pyrazol-5-yl)methoxy)-3,5-difluorophenyl)-2-methylpropanoic acid]
61		5.00 to 6.00		CCOC(Cc1cc(F)c(OCc2cc(C)nn2-c2ccc(Cl)cc2)c(F)c1)C(=O)O (stereo not shown) [Example 102, 3-(4-((1-(4-chlorophenyl)-3-methyl-1H-pyrazol-5-yl)methoxy)-3,5-difluorophenyl)-2-ethoxypropanoic acid]
99	≥ 6.00			CCCc1ccc(-n2nc(C)cc2COc2c(F)cc(CC(C)C(=O)O)cc2F)cc1 (stereo not shown) [Example 105, 3-(3,5-Difluoro-4-((3-methyl-1-(4-propylphenyl)-1H-pyrazol-5-yl)methoxy)phenyl)-2-methylpropanoic acid]
